Test results from patent US8093393B2, “Cationic ceramides, and analogs thereof, and their use for preventing or treating cancer” (MUSC Foundation for Research Development, priority 2004, dated 2012).
Converted amounts (≈) assume the structure as drawn. Where two headings read alike, the source gives them in different places.

How the values were obtained:
[1] = tested on: isolated rat liver mitochondria; test: Accumulation / binding in isolated mitochondria
Procedure: FIG. 16. […] Bar 2 and 4 (+FCCP), ΔΨ was dissipated by addition of FCCP at 1 μM plus antimycin A at 0.5 μg/mg protein from the beginning of the experiment. Results are expressed as mean+SEM of n=3, *p=0.01 versus control.
FIG. 23. […] Trace 3 was corrected for the absorbance of TMRM.
Preparation of mitochondria from rat liver.
Mitochondrial incubation medium.
Analysis of ceramides by mass spectroscopy (MS).

[2] = tested on: MCF7 breast carcinoma cells; test: Cell proliferation and viability, Trypan blue exclusion assay; type: cell-based; settings: for IC50: 48 h treatment, read-out: IC50, inhibitory effect on MCF7 cell growth
Procedure: FIGS. 5A-5F show the dose dependent effects of CCPS analogs on survival of MCF7 breast carcinoma cells in comparison to the activity of D-e-C6-ceramide, which is commonly used as a model of ceramide action. Cell proliferation and cell viability were determined by Trypan blue exclusion assay. These assays were performed using duplicate samples in two or three independent experiments.
Cell Proliferation: Cells were seeded into plates at a density of approx. 50% corresponding to 1×10^6 cells, in 10 ml of 10% FCS and after an over night incubation the cells were treated with LCL compounds at concentration 0-20 μM in ethanol (ethanol level was kept below 0.1%) and the changes in cell numbers after 48 h were determined and expressed as a percentage of the untreated controls.
Briefly, media was removed, cells were washed twice with PBS, detached using 1% Trypsin and centrifuged at 800 rpm. Cell pellets were resuspended in PBS and Trypan blue (Sigma Chemicals, St. Louis, Mo., USA) was added (1:1 dilution). Under light microscope, the percentage of unstained and stained cells was assessed.
To examine the anticancer activity of CCPS analogs of the invention, their inhibitory effect on MCF7 breast carcinoma cells were analyzed and compared to the activity of D-e-C6-ceramide, which is commonly used as a model of action for ceramides. Cell proliferation and cell viability were determined by Trypan blue exclusion assay.

MCF7 cells [3] = tested on: MCF7 cells
Procedure: (§1) Dose-response curves of ceramides effect on viability of Hep G2 and MCF7 cells. Hep G2 and MCF7 cells were incubated at the condition described in Section 9.1. […] Cell viability was assessed 46 hours after addition of ceramides. Data are expressed as a mean+SEM of n=3.
(§2) Cell culture. Hep G2 cells (obtained from ATCC) were cultured in Minimum essential medium (Eagle) supplemented with 10% fetal bovine serum, 2 mM L-glutamine, non-essential amino acids, 1 mM sodium pyruvate, and 1.5 g/L sodium bicarbonate in humidified air (5% CO2) at 37° C. […] MCF7 cells (obtained from ATCC) were cultured in RPMI 1640 Medium supplemented with 10% fetal bovine serum and 2 mM glutamine in humidified air (5% CO2) at 37° C. All media were supplemented with 100 U/ml penicillin and 100 μg/ml streptomycin.
(§3) Measurement of cell viability. Hep G2 or MCF7 cells were plated at a density of 10^4 cells/well in 96-well plates in the medium described under Cell culture. After 24 hours of incubation, the cells were treated with ceramides for 46 hours in 2% fetal bovine serum medium. Cell viability was determined by MTT (3-[4,5-dimethylthiazol-2-yl]-2,5-diphenyl tetrasodium bromide) based assay according manufacture recommendation (Sigma, St. Louis, Mo.).

[4] = tested on: isolated rat liver mitochondria; test: Cytochrome C release from mitochondria; type: biochemical; settings: 40 μM; for cytochrome C released from mitochondria: 20 minutes of incubation
Procedure: FIGS. 20A and 20B. […] Two min after the addition of CSA and EGTA samples were collected and treated for cytochrome C analysis. Alamethicin (ALA, 7 μg/mg protein) was added as indicated to determine the full degree of permeabilization and maximum cytochrome C release. […] Total amount of cytochrome C is 1.95 μg/mg protein.
Cytochrome C release from mitochondria. Aliquots of mitochondrial suspension were taken as indicated in figure legends and centrifuged at 15,000 g for 3 min. The supernatant and mitochondrial pellet were frozen and stored at […]. Cytochrome C in supernatants and pellets was quantified using the Quantikine cytochrome C ELISA kit (R&D Systems, Minniapolis, Minn.).

[5] = Solubility of ceramides and ceramidoids in water; settings: 37° C.
[6] = tested on: isolated rat liver mitochondria; test: Mitochondrial permeabilization (ΔΨ, large-amplitude swelling); settings: for IC50: read-out: IC50 of mitochondrial swelling, swelling 30 min after ceramide treatment
Procedure: Effects of ceramides on ΔΨ value (17A) and mitochondrial large-amplitude swelling (17B, 17C) Mitochondria were incubated at the condition described under Section 9.1 except that 2 μM of TPP+ was present from the beginning of the experiment. Alamethicin (ALA), a pore-forming peptide (7 μg/mg protein), was added as indicated to induce permeabilization and determine the full extend of potential changes in the parameters of interest. Where indicated ceramides at 40 μM were present from the beginning of the experiment. FIGS. 17A and 17B show time-courses of ceramides effect on ΔΨ and mitochondrial swelling. […] Degree of mitochondrial swelling was determined 30 min after ceramide treatment.
Mitochondria were incubated at the condition described under Section 9.1 except that 2 μM of TPP+ was present from the beginning of the experiment. Trace 2, no addition. […] Trace 4, FCCP at 1 μM was present from the beginning of the experiment. […] Alamethicin (ALA), a pore-forming peptide (7 μg/mg protein), was added as indicated to induce permeabilization and determine the full extent of potential changes in the parameters of interest.
Mitochondria were incubated at the condition described under “Experimental procedures”. […] Trace 2, DCCD at 100 μM was added from the beginning of the experiment. Alamethicin (ALA) was added as indicated to determine full degree of permeabilization. […] The curve was generated from experiments similar to that depicted in traces 1 and 2 with indicated concentration of DCCD present from the beginning of the experiment.
Effect of hydrophobic cations on the time-course of mitochondrial large-amplitude swelling. Alamethicin (ALA), a pore-forming peptide (7 μg/mg protein), was added as indicated to induce permeabilization and determine the full extent of mitochondrial swelling. Where indicated cations at 60 μM were added to the incubation medium. Trace 1, no additions; trace 2, C2 pyridinium ceramide; trace 3, TMRM; trace 4, cetyl pyridinium; trace 5, TPP^+. Trace 3 was corrected for the absorbance of TMRM.
Time-course (A) and dose-response (B) of the effect of C6 pyridinium dihydroceramide on mitochondrial large-amplitude swelling. Mitochondria were incubated at the condition described under “Experimental procedures”. Alamethicin (ALA), a pore-forming peptide (7 μg/mg protein), was added as indicated to induce permeabilization and determine the full extent of mitochondrial swelling. Where indicated ceramides at 30 μM were added to the incubation medium. […] Trace 1, no additions; trace 2, C6 pyridinium ceramide; trace 3, C6 pyridinium dihydroceramide. […] Degree of mitochondrial swelling was determined 15 min after ceramide treatment. Trace 1, C6 pyridinium dihydroceramide; trace 2, C6 pyridinium ceramide.

MCF7 cells [7] = settings: 5 μM
Procedure: Data are expressed as changes in the total ceramide level (pmol) or individual ceramide components (pmol) normalized to the phospholipid level, Pi (nmol) present in the Bligh & Dyer lipid extract and shown as changes to the control cells: Ceramide/Pi[pmol/nmol] (% Control).
Endogenous ceramide: ESI/MS/MS analysis of endogenous sphingoid bases, sphingoid base 1-phosphates and ceramide species was performed on a Thermo Finnigan TSQ 7000 triple quadrupole mass spectrometer, operating in a Multiple Reaction Monitoring (MRM) positive ionization mode using modified version (Bielawski, J. et al., SERMACS 2003, poster #68) of the protocol previously published (Sullard, M. C., Merrill, A. H., Sciences stke 2001/67/p 11).
Briefly, for the indicated points, media was removed, cells were washed twice with PBS, scraped into cold PBS (2×1.0 ml), transferred to glass vials and centrifuged for 5 min at 800 rpm. Cell pellets corresponding to ˜1×10^6 cells, were fortified with the internal standards IS (C17 base D-erythro-sphingosine: 17Sph, C17 sphingosine-1-phosphate: 17Sph-1P, N-palmitoyl-D-erythro-C13 sphingosine: 13CC16-Cer and N-heptadecanoyl-D-erythro-C17shingosine: 17CC17-Cer) and extracted (2×2 ml) into a one-phase solvent system with ethyl acetate/iso-propanol/water (60/30/10 v/v). One ml of this extract was used for Pi determination after lipid re-extraction by the Bligh and Dyer method. Remaining lipid extract was evaporated, reconstituted in 100 μl of methanol, and samples were injected on the Surveyor/TSQ 7000 LC/MS system and gradient eluted from the BDS Hypersil C8, 150×3.2 mm, 3 μm particle size column, with 1.0 mM methanolic ammonium formate/2 mM aqueous ammonium formate mobile phase system. […]
Quantitative analysis was based on the calibration curves generated by spiking an artificial matrix with the known amounts of the target analyte synthetic standards and an equal amount of the internal standards (IS). […]
Final data were adjusted and results were expressed as level of particular sphingolipids/Pi (pmol/nmol).

UM-SCC-22A cells [8] = test: Cell cycle profiles by flow cytometry; type: cell-based, human; settings: 1 μM, 48 hr
Procedure: FIGS. 13A to 13B. Roles of CCPS on cell cycle profiles, and telomerase activity of UM-SCC-22A cells. (FIG. 13A) The effects of D-e-C6—, D-e-C12- and L-th-C12-pyridinium ceramides (at 1 μM for 48 hr) on cell cycle profiles of UM-SCC-22A cells were determined and compared to that of untreated cells using flow cytometry as described in Materials and Methods. (FIG. 13B) The effects of 0, 100, 250 and 500 nM L-t-C6-Pyr-Cer (LCL-124) (lanes 1-4, respectively) at 96 hr treatment in UM-SCC-22A cells on telomerase activity was assessed using TRAP assay. Lanes 5 and 6 contain positive (+) and negative (−) controls. To examine whether C6-Pyr-Cer inhibits telomerase activity directly, cell extracts (as shown in lane 1) were incubated in the presence of various concentrations of L-th-C6-Pyr-ceramide (LCL-124; 10, 20 and 100 μM) and telomerase activity was determined using TRAP assay (lanes 7-9, respectively). The presence of non-telomeric 36 bp internal standard (IS) in the TRAP assay serves as a control for polymerase chain reaction, and used for quantitation/normalization of the activity of telomerase. The results shown are representative of at least two independent experiments.
Analysis of cell cycle profiles. The effects of pyridinium ceramides on the cell cycle profiles of A549 cells at 24 hr were analyzed in the presence of DNase-free RNase and propidium iodine (PI) by flow cytometry as described in Ogretmen et al., J. Biol. Chem. 2001; 276: 24901-24910, which is incorporated herein by reference in its entirety. Untreated cells were used as controls.
Analysis of cell cycle profiles. […] Untreated cells were used as controls.

MCF7 cells [9] = settings: 5 μM, 5 h
Procedure: FIGS. 4A-4C show the cellular levels of CCPS analogs. MCF 7 cells were treated with 5 μM concentration of CCPS analogs over the time and cellular level of the nonmetabolized CCPSs was measured by MS methodology as shown under Experimental. Results are expressed as % of concentration applied.
A parallel set of cells was used to determine cell proliferation and to prepare lipid extracts for MS analysis.
Briefly, for the indicated points, media was removed, cells were washed twice with PBS, scraped into cold PBS (2×1.0 ml), transferred to glass vials and centrifuged for 5 min at 800 rpm. Cell pellets corresponding to ˜1×10^6 cells, were fortified with the internal standards IS (C17 base D-erythro-sphingosine: 17Sph, C17 sphingosine-1-phosphate: 17Sph-1P, N-palmitoyl-D-erythro-C13 sphingosine: 13CC16-Cer and N-heptadecanoyl-D-erythro-C17shingosine: 17CC17-Cer) and extracted (2×2 ml) into a one-phase solvent system with ethyl acetate/iso-propanol/water (60/30/10 v/v). One ml of this extract was used for Pi determination after lipid re-extraction by the Bligh and Dyer method. Remaining lipid extract was evaporated, reconstituted in 100 μl of methanol, and samples were injected on the Surveyor/TSQ 7000 LC/MS system and gradient eluted from the BDS Hypersil C8, 150×3.2 mm, 3 μm particle size column, with 1.0 mM methanolic ammonium formate/2 mM aqueous ammonium formate mobile phase system. Peaks corresponding to the target analytes and IS were collected and processed using the Xcalibur software system.
Cellular level of CCPS analogs was established by MS methodology.

UM-SCC-22A cells [10] = test: MTT cell survival assay and isobologram studies; type: cell-based, human; settings: UM-SCC-22A, read-out: IC50, cell growth
[11] = aqueous conditions at pH 4.5, 7.5 and 8.5 over 48 hrs

Procedure for Hep G2 cells: as §1, §2, §3

Compound | IC50 (Hep G2 cells) | IC50 [2] | IC50 (MCF7 cells [3]) | cytochrome C released from mitochondria [4] | IC50 [6] | effect on endogenous ceramide (MCF7 cells [7]) | cell cycle profile (UM-SCC-22A cells [8]) | Cellular level, % of concentration applied (MCF7 cells [9]) | inhibitory effect on MCF7 cell growth (in words) ([2]; 48 h) | IC50 (UM-SCC-22A cells [10]; 48 hr) | IC50 (UM-SCC-22A cells [10]; 96 hr, DMEM) | Stability (decomposition) by MS [11] | other results
CCCCCCCCCCCCC/C=C/[C@@H](O)[C@H](CO)NC(=O)CCCCC [C6-Cer, D-erythro-C6-ceramide, reference compound] | ~31000 nM | 15000 nM | ~16000 nM | no effect on cytochrome C release | > 60000 nM | – | – | – | – | – | – | – | suppression of accumulation by dissipation of ΔΨ (antimycin plus FCCP) ([1]; 10 μM): insensitive to dissipation of ΔΨ; association with mitochondria ([1]; 10 μM, energized mitochondria): 79.3%; binding to mitochondria ([1]; 30 μM, at 4 min): 5±0.8 nmol/mg protein; inhibition of MCF7 cell growth ([2]; 10 μM, 48 h): ~35%; Solubility at 37° C. [5]: 1.4 µg/mL (≈ 3.52 µM); Solubility at 37° C. ([mM]) [5]: (0.0036) mM
CCCCCCCCCCCCC/C=C/[C@@H](O)[C@H](CO)NC(=O)CCCCCCCCCCCCCCC[n+]1ccccc1.[Br-] [LCL30, D-erythro-2-N-[16′-(1″-Pyridinium)-hexadecanoyl]-sphingosine Bromide] | – | 1800 nM | – | – | – | caused generation of an “early Cer” | significant increase in the population of cells in G0/G1 | ~17% | similar, concentration dependent (1.0-10.0 μM) inhibitory effect on cell growth | ~1000 nM | ~300 nM | no evidence of their decomposition | IC50 ([2]; listed as LCL-30): 1600 nM
CCCCCCCCCCCCC/C=C/[C@@H](O)[C@H](CO)NC(=O)CCCCCCCCCCC[n+]1ccccc1.[Br-] [LCL88, D-erythro-2-N-[12′-(1″-Pyridinium)-dodecanoyl]-sphingosine Bromide] | – | 600 nM | – | – | – | caused generation of an “early Cer” | significant increase in the population of cells in G0/G1 | 23% | – | ~1000 nM | ~300 nM | no evidence of their decomposition | –
D-erythro-2-N-[6′-(1″-Pyridinium)-hexanoyl]-sphingosine Bromide [LCL29] | ~8000 nM | 1000 nM | ~2000 nM | about 40% | ~27500 nM | caused generation of an “early Cer” | significant increase in the population of cells in G0/G1 | – | caused inhibitory effect on MCF7 cell growth | ~1000 nM | – | – | IC50 (UM-SCC-22A cells [10]; 96 hr, DMEM, listed as D-e-C6-Pyr-Cer): ~300 nM; fold decrease in cytochrome C release with FCCP plus antimycin A ([4]; 20 minutes): ~3 fold; effect on ΔΨ and mitochondrial swelling (in words) ([6]; 40 μM): complete dissipation of ΔΨ
